Measured values: the supplement of paper PMC10307832

Experiments:
Assay in all cases: relative viability (nuclei count vs DMSO), 5 days (fraction); higher = more cells survive
NCI-H596 = test system: NCI-H596
In short: (§1)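 The day after seeding in 1536-well plates, lung cancer cell lines were treated by pin tool with a single drug, or with a fixed anchor-drug dose together with five library-drug doses (not always all listed) in √10 steps. After 5 days, a combined fix-and-stain solution (final 0.05% Triton X-100, 1% formaldehyde, 1 ug/ml Hoechst) was added. Nuclei counted on 4× images gave relative viability as treated counts over vehicle counts, reported as the median of duplicate plates.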

COR-L 105 = test system: COR-L 105
In short: as §1

NCI-H2126 = test system: NCI-H2126
In short: as §1

LOU-NH91 = test system: LOU-NH91
In short: as §1

NCI-H650 = test system: NCI-H650
In short: as §1

ChaGo-K-1 = test system: ChaGo-K-1
In short: as §1

NCI-H3122 = test system: NCI-H3122
In short: as §1

EKVX = test system: EKVX
In short: as §1

NCI-H2228 = test system: NCI-H2228
In short: as §1

NCI-H1975 = test system: NCI-H1975
In short: as §1

LCLC-103H = test system: LCLC-103H
In short: as §1

HCC-827 = test system: HCC-827
In short: as §1

201T = test system: 201T
In short: as §1

NCI-H23 = test system: NCI-H23
In short: as §1

PC-3 [JPC-3] = test system: PC-3 [JPC-3]
In short: as §1

H3255 = test system: H3255
In short: as §1

HOP-62 = test system: HOP-62
In short: as §1

NCI-H727 = test system: NCI-H727
In short: as §1

SK-LU-1 = test system: SK-LU-1
In short: as §1

NCI-H661 = test system: NCI-H661
In short: as §1

NCI-H2405 = test system: NCI-H2405
In short: as §1

HARA = test system: HARA
In short: as §1

Cc1csc(=NC2CCCCC2)n1/N=C/c1ccc(O)c(O)c1O [MIM1] + CC(C)C[C@H](NC(=O)[C@H](Cc1ccccc1)NC(=O)c1cnccn1)B(O)O [Bortezomib] (partner 0.002 µM)
relative viability (NCI-H596; first compound 0.6325 µM): 1.16 | relative viability (NCI-H596; first compound 2 µM): 0.988 | relative viability (NCI-H596; first compound 6.325 µM): 0.999 | relative viability (NCI-H596; first compound 20 µM): 0.951 | relative viability (COR-L 105; first compound 0.2 µM): 0.789 | relative viability (COR-L 105; first compound 0.6325 µM): 0.82 | relative viability (COR-L 105; first compound 2 µM): 0.719 | relative viability (COR-L 105; first compound 6.325 µM): 0.54 | relative viability (COR-L 105; first compound 20 µM): 0.278 | relative viability (NCI-H2126; first compound 0.2 µM): 1.13 | relative viability (NCI-H2126; first compound 0.6325 µM): 1.1 | relative viability (NCI-H2126; first compound 2 µM): 1.13 | relative viability (NCI-H2126; first compound 6.325 µM): 1.03 | relative viability (NCI-H2126; first compound 20 µM): 1 | relative viability (LOU-NH91; first compound 0.2 µM): 0.462 | relative viability (LOU-NH91; first compound 0.6325 µM): 0.53 | relative viability (LOU-NH91; first compound 2 µM): 0.447 | relative viability (LOU-NH91; first compound 6.325 µM): 0.35 | relative viability (LOU-NH91; first compound 20 µM): 0.267 | relative viability (NCI-H650; first compound 0.2 µM): 0.769 | relative viability (NCI-H650; first compound 0.6325 µM): 0.73 | relative viability (NCI-H650; first compound 2 µM): 0.682 | relative viability (NCI-H650; first compound 6.325 µM): 0.832 | relative viability (NCI-H650; first compound 20 µM): 0.296 | relative viability (ChaGo-K-1; first compound 0.2 µM): 1.03 | relative viability (ChaGo-K-1; first compound 0.6325 µM): 0.972 | relative viability (ChaGo-K-1; first compound 2 µM): 1.06 | relative viability (ChaGo-K-1; first compound 6.325 µM): 0.729 | relative viability (ChaGo-K-1; first compound 20 µM): 0.29 | relative viability (NCI-H3122; first compound 0.2 µM): 1 | relative viability (NCI-H3122; first compound 0.6325 µM): 1.06 | relative viability (NCI-H3122; first compound 2 µM): 0.999 | relative viability (NCI-H3122; first compound 6.325 µM): 0.986 | relative viability (NCI-H3122; first compound 20 µM): 0.235 | relative viability (EKVX; first compound 0.2 µM): 1.03 | relative viability (EKVX; first compound 0.6325 µM): 1.16 | relative viability (EKVX; first compound 2 µM): 0.991 | relative viability (EKVX; first compound 6.325 µM): 0.601 | relative viability (EKVX; first compound 20 µM): 0.33 | relative viability (NCI-H2228; first compound 0.2 µM): 1.02 | relative viability (NCI-H2228; first compound 0.6325 µM): 1.09 | relative viability (NCI-H2228; first compound 2 µM): 1.09 | relative viability (NCI-H2228; first compound 6.325 µM): 0.414 | relative viability (NCI-H2228; first compound 20 µM): 0.246 | relative viability (NCI-H1975; first compound 0.2 µM): 0.428 | relative viability (NCI-H1975; first compound 0.6325 µM): 0.381 | relative viability (NCI-H1975; first compound 2 µM): 0.377 | relative viability (NCI-H1975; first compound 6.325 µM): 0.231 | relative viability (NCI-H1975; first compound 20 µM): 0.221 | relative viability (LCLC-103H; first compound 0.2 µM): 0.974 | relative viability (LCLC-103H; first compound 0.6325 µM): 0.959 | relative viability (LCLC-103H; first compound 2 µM): 1.05 | relative viability (LCLC-103H; first compound 6.325 µM): 0.955 | relative viability (LCLC-103H; first compound 20 µM): 0.938 | relative viability (HCC-827; first compound 0.2 µM): 1.09 | relative viability (HCC-827; first compound 0.6325 µM): 0.9 | relative viability (HCC-827; first compound 2 µM): 1.07 | relative viability (HCC-827; first compound 6.325 µM): 0.402 | relative viability (HCC-827; first compound 20 µM): 0.465 | relative viability (201T; first compound 0.2 µM): 1.09 | relative viability (201T; first compound 0.6325 µM): 1.08 | relative viability (201T; first compound 2 µM): 1.08 | relative viability (201T; first compound 6.325 µM): 0.779 | relative viability (201T; first compound 20 µM): 0.82 | relative viability (NCI-H23; first compound 0.2 µM): 1.08 | relative viability (NCI-H23; first compound 2 µM): 0.702 | relative viability (NCI-H23; first compound 6.325 µM): 0.851 | relative viability (NCI-H23; first compound 20 µM): 0.167 | relative viability (PC-3 [JPC-3]; first compound 0.2 µM): 0.862 | relative viability (PC-3 [JPC-3]; first compound 0.6325 µM): 0.7 | relative viability (PC-3 [JPC-3]; first compound 2 µM): 0.77 | relative viability (PC-3 [JPC-3]; first compound 6.325 µM): 0.703 | relative viability (PC-3 [JPC-3]; first compound 20 µM): 0.496 | relative viability (H3255; first compound 0.2 µM): 0.861 | relative viability (H3255; first compound 0.6325 µM): 0.634 | relative viability (H3255; first compound 2 µM): 0.666 | relative viability (H3255; first compound 6.325 µM): 0.538 | relative viability (H3255; first compound 20 µM): 0.24 | relative viability (HOP-62; first compound 0.2 µM): 1.04 | relative viability (HOP-62; first compound 0.6325 µM): 0.611 | relative viability (HOP-62; first compound 2 µM): 0.746 | relative viability (HOP-62; first compound 6.325 µM): 0.494 | relative viability (HOP-62; first compound 20 µM): 0.116 | relative viability (NCI-H727; first compound 0.2 µM): 0.671 | relative viability (NCI-H727; first compound 0.6325 µM): 0.785 | relative viability (NCI-H727; first compound 2 µM): 0.705 | relative viability (NCI-H727; first compound 6.325 µM): 0.602 | relative viability (NCI-H727; first compound 20 µM): 0.286 | relative viability (SK-LU-1; first compound 0.2 µM): 1.05 | relative viability (SK-LU-1; first compound 0.6325 µM): 1.09 | relative viability (SK-LU-1; first compound 2 µM): 1.09 | relative viability (SK-LU-1; first compound 6.325 µM): 0.962 | relative viability (SK-LU-1; first compound 20 µM): 0.947 | relative viability (NCI-H661; first compound 0.2 µM): 0.843 | relative viability (NCI-H661; first compound 0.6325 µM): 0.861 | relative viability (NCI-H661; first compound 2 µM): 0.648 | relative viability (NCI-H661; first compound 6.325 µM): 0.453 | relative viability (NCI-H661; first compound 20 µM): 0.221 | relative viability (NCI-H2405; first compound 0.2 µM): 0.959 | relative viability (NCI-H2405; first compound 0.6325 µM): 1.01 | relative viability (NCI-H2405; first compound 2 µM): 0.961 | relative viability (NCI-H2405; first compound 6.325 µM): 0.788 | relative viability (NCI-H2405; first compound 20 µM): 0.358 | relative viability (HARA; first compound 0.2 µM): 1.09 | relative viability (HARA; first compound 0.6325 µM): 1.1 | relative viability (HARA; first compound 2 µM): 1.2 | relative viability (HARA; first compound 6.325 µM): 1.08 | relative viability (HARA; first compound 20 µM): 0.127
